What all share (experiment): inhibition of tumour cell growth, NCI panel, 48 h
Assay [1] deals with A549 NSCLC.
Assay [2] has as its system HCT-15 colon.
The test system of assay [3] is HOP-62 NSCLC.
Assay [4] has as its system M14 melanoma.
Assay [5] deals with NCI-H460 lung.
The test system of assay [6] is NCI/ADR-RES ovarian.
Assay [7] relates to OVCAR-8 ovarian.
In assay [8] the test system is RPMI-8226 leukemia.
Assay [9] has as its system SF-268 CNS.
The subject of assay [10] is SK-MEL-2 melanoma.

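In this assay, cells in 96-well plates receive the compound at five concentrations for 48 hours. Endpoints are linearly interpolated between the surrounding concentrations. GI50 marks 50% less growth. TGI denotes the concentration required for complete inhibition of growth.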

As for `COc1ccc2c(c1)CCC1C2CC[C@@]2(C)C1CC1=CC(COC(C)=O)C3C(=O)c4ccccc4C(=O)C3C12` (stereo not given in full), the GI50 in assay [1], in assay [2], in assay [3], in [4], in assay [5] and in assay [6] was more than 100 µM in each case. The GI50 in [7] is more than 100 µM; in assay [8], 51.2 µM; in assay [9] it was more than 100 µM; in assay [10], more than 100 µM. For the same molecule, the TGI in [1], in assay [2], in assay [3], in assay [4], in assay [5] and in assay [6] was more than 100 µM in each case. Further, the TGI in [7], in assay [8], in assay [9] and in [10] was more than 100 µM each time.
As for `Cc1ccc(Cl)cc1Nc1nc(C(F)(F)F)ccc1C(=O)N1CCN(c2ccc(F)cc2)CC1`, the GI50 was 15.3 µM in [1]; 13.2 µM in [2]; 14.7 µM in [3]; 15 µM in assay [4]; 16 µM in assay [5]; 13.3 µM in [6]. Moreover, the GI50 is 16.6 µM in assay [7], 15.5 µM in assay [8], 15.8 µM in assay [9] and 16.1 µM in assay [10]. Further, the TGI in assay [1] was determined as 37.1 µM; in assay [2], 29.3 µM; in assay [3] it was 29.8 µM; in assay [4] it was 31.3 µM; in assay [5], 36.9 µM; in [6], 36.7 µM. Besides, the TGI in assay [7] was 50.2 µM; in assay [8] it was 52.6 µM; in assay [9], 36.5 µM; in assay [10], 37.1 µM.
With `O=c1c2ccccc2[se]n1-c1cccnc1`, the TGI in [1] was more than 100 µM; in assay [2], 52.8 µM; in assay [3], 71 µM; in [4], 83.7 µM; in [5], more than 100 µM; in assay [6], more than 100 µM. For the same molecule, the TGI in assay [7] came out at 69.5 µM; in assay [8], 86.9 µM; in assay [9], 70.6 µM; in assay [10] it was 47.9 µM.
For the molecule `COC(=O)/C=C/c1cc(O)c2oc(-c3ccc(O)c(O)c3)c(C(=O)OC)c2c1`, the GI50 in [1] was 1.27 µM; in assay [2], 0.0672 µM; in [3], 0.442 µM; in [4], 0.0698 µM; in [5], 2.66 µM; in assay [6], 0.134 µM. The GI50 in assay [7] was 0.521 µM; in assay [8], 0.316 µM; in assay [9] it was 1.52 µM; in [10] it was 0.74 µM. Further, the TGI in assay [1] was 14.1 µM; in assay [2], 11.2 µM; in [3], 12.7 µM; in assay [4], 9.39 µM; in assay [5] it was 18.1 µM; in assay [6], 6.63 µM. The TGI in [7] is 13 µM; in assay [8], 1.75 µM; in assay [9], 12.5 µM; in assay [10], 13.2 µM.
For the molecule `COc1ncnc(C2CC2)c1-c1ncc2cnn(Cc3ccc(-c4nc(C(F)(F)F)cn4C(C)C)cc3)c2n1`, the GI50 in assay [1] was 19.3 µM; in [2], 17 µM; in [3], 25.6 µM; in assay [4], 28.1 µM; in assay [5], 18.4 µM; in assay [6], 15.6 µM. Moreover, the GI50 in [7] is 21 µM; in assay [8] it was 10.9 µM; in [9], 16.2 µM; in [10], 14.5 µM. For the same molecule, the TGI in [1] is more than 100 µM; in assay [2] it was 90.7 µM; in assay [3], more than 100 µM; in [4], more than 100 µM; in assay [5], 85.4 µM; in [6], 82.6 µM. Further, the TGI is more than 100 µM in assay [7], 42.2 µM in assay [8], 80.9 µM in assay [9] and 30.4 µM in [10].
As for `Cc1ccc(C(SCC(N)C(=O)O)(c2ccccc2)c2ccc(C)cc2)cc1` (stereo not given), the GI50 in assay [1] was 0.466 µM; in assay [2], 0.367 µM; in assay [3], 2 µM; in [4], 0.0316 µM; in assay [5] it was 0.307 µM; in [6], 1.14 µM. The GI50 in assay [7] was 0.433 µM; in [8] it was 0.135 µM; in assay [9] it was 0.257 µM; in assay [10], 0.219 µM. In addition, the TGI in [1] was found to be 45.6 µM; in assay [2] it was 23.9 µM; in assay [3] it was 18.9 µM; in assay [4], 0.147 µM; in assay [5], 12 µM; in [6], 11.6 µM. Moreover, the TGI in assay [7] was determined as 44.2 µM; in assay [8], 20.6 µM; in assay [9] it was 23.9 µM; in assay [10] it was 3.88 µM.
In the case of `CCOc1nc(-c2ccccc2)cc2c(O)c(-c3nnco3)[nH]c(=O)c12`, the GI50 in assay [1] was 4.55 µM; in assay [2], 3.66 µM; in assay [3], 4.12 µM; in assay [4], 7.12 µM; in [5], 4.01 µM; in [6] it was 3.4 µM. The GI50 in assay [7] is 4.24 µM; in [8], 4.11 µM; in [9], 5.62 µM; in [10], 9.4 µM. For the same molecule, the TGI in assay [1], in [2], in [3], in assay [4], in [5] and in assay [6] was more than 100 µM throughout. In addition, the TGI was more than 100 µM in assay [7], more than 100 µM in [8], more than 100 µM in assay [9] and more than 46.9 µM in assay [10].
